System: 996289-038-R-J1-PDC complex spheroid viability
Experiment: Anticancer human tumor 996289-038-R-J1-PDC patient-derived colon adenocarcinoma cell line growth inhibition [CLK]
Details: for IC50: curve of first compound; for viability, T/C: stronger effect = lower value
Procedure, shortened: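 Patient-derived tumor cells grown as complex spheroids with HUVEC endothelial cells and mesenchymal stem cells, treated with drug combinations. Concentrations descend in half-log steps from near clinical Cmax, or from 10 microM if Cmax unknown.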

[1] = second compound 0.0316 µM, first compound 0.0316 µM
[2] = second compound 0.0316 µM, first compound 0.1 µM
[3] = second compound 0.0316 µM, first compound 0.316 µM
[4] = second compound 0.0316 µM, first compound 1 µM
[5] = second compound 0.0316 µM, first compound 3.16 µM
[6] = second compound 0.0316 µM, first compound 10 µM
[7] = second compound 0.1 µM, first compound 0.0316 µM
[8] = second compound 0.1 µM, first compound 0.1 µM
[9] = second compound 0.1 µM, first compound 0.316 µM
[10] = second compound 0.1 µM, first compound 1 µM
[11] = second compound 0.1 µM, first compound 3.16 µM
[12] = second compound 0.1 µM, first compound 10 µM
[13] = second compound 0.316 µM, first compound 0.0316 µM
[14] = second compound 0.316 µM, first compound 0.1 µM
[15] = second compound 0.316 µM, first compound 0.316 µM
[16] = second compound 0.316 µM, first compound 1 µM
[17] = second compound 0.316 µM, first compound 3.16 µM
[18] = second compound 0.316 µM, first compound 10 µM
[19] = second compound 1 µM, first compound 0.0316 µM
[20] = second compound 1 µM, first compound 0.1 µM
[21] = second compound 1 µM, first compound 0.316 µM
[22] = second compound 1 µM, first compound 1 µM
[23] = second compound 1 µM, first compound 3.16 µM
[24] = second compound 1 µM, first compound 10 µM
[25] = second compound 3.16 µM, first compound 0.0316 µM
[26] = second compound 3.16 µM, first compound 0.1 µM
[27] = second compound 3.16 µM, first compound 0.316 µM
[28] = second compound 3.16 µM, first compound 1 µM
[29] = second compound 3.16 µM, first compound 3.16 µM
[30] = second compound 3.16 µM, first compound 10 µM
[31] = second compound 10 µM, first compound 0.0316 µM
[32] = second compound 10 µM, first compound 0.1 µM
[33] = second compound 10 µM, first compound 0.316 µM
[34] = second compound 10 µM, first compound 1 µM
[35] = second compound 10 µM, first compound 3.16 µM
[36] = second compound 10 µM, first compound 10 µM
[37] = second compound 0.0316 µM, first compound 0.00316 µM
[38] = second compound 0.0316 µM, first compound 0.01 µM
[39] = second compound 0.1 µM, first compound 0.00316 µM
[40] = second compound 0.1 µM, first compound 0.01 µM
[41] = second compound 0.316 µM, first compound 0.00316 µM
[42] = second compound 0.316 µM, first compound 0.01 µM
[43] = second compound 1 µM, first compound 0.00316 µM
[44] = second compound 1 µM, first compound 0.01 µM
[45] = second compound 3.16 µM, first compound 0.00316 µM
[46] = second compound 3.16 µM, first compound 0.01 µM
[47] = second compound 10 µM, first compound 0.00316 µM
[48] = second compound 10 µM, first compound 0.01 µM
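Note: spheroids exposed to the agents for 7 days before readout.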

CC(CO)NC(=O)c1cc(-c2ccc(Cl)cc2)nn(-c2cnn(C)c2)c1=O (stereo not drawn) + CNC(=O)c1ccc(Nc2nc(OC3CCCC3)c3c(-c4ccc5nc(C)oc5c4)c[nH]c3n2)c(OC)c1
IC50 (second compound 0.0316 µM): > 10000 nM
IC50 (second compound 0.1 µM): > 10000 nM
IC50 (second compound 0.316 µM): > 10000 nM
IC50 (second compound 1 µM): > 10000 nM
IC50 (second compound 3.16 µM): > 10000 nM
IC50 (second compound 10 µM): > 10000 nM
viability, T/C [1]: 117%
viability, T/C [2]: 111%
viability, T/C [3]: 108%
viability, T/C [4]: 117%
viability, T/C [5]: 109%
viability, T/C [6]: 99.6%
viability, T/C [7]: 131%
viability, T/C [8]: 113%
viability, T/C [9]: 116%
viability, T/C [10]: 95.4%
viability, T/C [11]: 101%
viability, T/C [12]: 83.7%
viability, T/C [13]: 79.8%
viability, T/C [14]: 76.9%
viability, T/C [15]: 73.2%
viability, T/C [16]: 71.4%
viability, T/C [17]: 72.7%
viability, T/C [18]: 68.9%
viability, T/C [19]: 64.2%
viability, T/C [20]: 63.7%
viability, T/C [21]: 57.8%
viability, T/C [22]: 57.5%
viability, T/C [23]: 57.5%
viability, T/C [24]: 49%
viability, T/C [25]: 58.2%
viability, T/C [26]: 57.6%
viability, T/C [27]: 55.3%
viability, T/C [28]: 54.7%
viability, T/C [29]: 56.9%
viability, T/C [30]: 48.3%
viability, T/C [31]: 52.4%
viability, T/C [32]: 56.9%
viability, T/C [33]: 56.2%
viability, T/C [34]: 58.5%
viability, T/C [35]: 55.5%
viability, T/C [36]: 44.8%

CC(Nc1ccc2c(c1)OCCn1cc(N3C(=O)OCC3C(F)F)nc1-2)C(N)=O (stereo not drawn) + CNC(=O)c1ccc(Nc2nc(OC3CCCC3)c3c(-c4ccc5nc(C)oc5c4)c[nH]c3n2)c(OC)c1
IC50 (second compound 0.0316 µM): > 10000 nM
IC50 (second compound 0.1 µM): 8750 nM
IC50 (second compound 0.316 µM): 655 nM
IC50 (second compound 1 µM): 45.3 nM
IC50 (second compound 3.16 µM): 48.9 nM
IC50 (second compound 10 µM): < 31.6 nM
viability, T/C [1]: 113%
viability, T/C [2]: 92.9%
viability, T/C [3]: 83.4%
viability, T/C [4]: 69.1%
viability, T/C [5]: 60.2%
viability, T/C [6]: 49.7%
viability, T/C [7]: 114%
viability, T/C [8]: 97.3%
viability, T/C [9]: 82.1%
viability, T/C [10]: 70.9%
viability, T/C [11]: 61.1%
viability, T/C [12]: 47.4%
viability, T/C [13]: 69.1%
viability, T/C [14]: 62.3%
viability, T/C [15]: 53%
viability, T/C [16]: 47.4%
viability, T/C [17]: 42.2%
viability, T/C [18]: 32.2%
viability, T/C [19]: 52.9%
viability, T/C [20]: 43.7%
viability, T/C [21]: 38.3%
viability, T/C [22]: 31.5%
viability, T/C [23]: 29.2%
viability, T/C [24]: 24.4%
viability, T/C [25]: 53.7%
viability, T/C [26]: 44.8%
viability, T/C [27]: 33.1%
viability, T/C [28]: 31.5%
viability, T/C [29]: 25.4%
viability, T/C [30]: 21.9%
viability, T/C [31]: 46.7%
viability, T/C [32]: 42.8%
viability, T/C [33]: 31.2%
viability, T/C [34]: 30.6%
viability, T/C [35]: 27.1%
viability, T/C [36]: 21.8%

CCN1CCN(Cc2ccc(Nc3ncc(F)c(-c4cc(F)c5nc(C)n(C(C)C)c5c4)n3)nc2)CC1 + CNC(=O)c1ccc(Nc2nc(OC3CCCC3)c3c(-c4ccc5nc(C)oc5c4)c[nH]c3n2)c(OC)c1
IC50 (second compound 0.0316 µM): > 1000 nM
IC50 (second compound 0.1 µM): > 1000 nM
IC50 (second compound 0.316 µM): > 1000 nM
IC50 (second compound 1 µM): > 1000 nM
IC50 (second compound 3.16 µM): > 1000 nM
IC50 (second compound 10 µM): > 1000 nM
viability, T/C [37]: 109%
viability, T/C [38]: 103%
viability, T/C [1]: 106%
viability, T/C [2]: 97.6%
viability, T/C [3]: 92.6%
viability, T/C [4]: 96.2%
viability, T/C [39]: 115%
viability, T/C [40]: 111%
viability, T/C [7]: 108%
viability, T/C [8]: 91.8%
viability, T/C [9]: 86.5%
viability, T/C [10]: 86.7%
viability, T/C [41]: 79%
viability, T/C [42]: 81.2%
viability, T/C [13]: 80.8%
viability, T/C [14]: 75%
viability, T/C [15]: 82.8%
viability, T/C [16]: 76.8%
viability, T/C [43]: 72.6%
viability, T/C [44]: 70.2%
viability, T/C [19]: 64.2%
viability, T/C [20]: 66.9%
viability, T/C [21]: 64.8%
viability, T/C [22]: 77.1%
viability, T/C [45]: 62.5%
viability, T/C [46]: 62.1%
viability, T/C [25]: 61.9%
viability, T/C [26]: 64.9%
viability, T/C [27]: 73.2%
viability, T/C [28]: 65.9%
viability, T/C [47]: 66%
viability, T/C [48]: 63.9%
viability, T/C [31]: 61.3%
viability, T/C [32]: 62.2%
viability, T/C [33]: 68.1%
viability, T/C [34]: 59.8%

COc1c(OCCCN2CCOCC2)ccc2c3n(c(=NC(=O)c4cnc(N)nc4)nc12)CCN3 + CNC(=O)c1ccc(Nc2nc(OC3CCCC3)c3c(-c4ccc5nc(C)oc5c4)c[nH]c3n2)c(OC)c1
IC50 (second compound 0.0316 µM): 123 nM
IC50 (second compound 0.1 µM): 97.3 nM
IC50 (second compound 0.316 µM): 28.9 nM
IC50 (second compound 1 µM): 7.67 nM
IC50 (second compound 3.16 µM): 3.86 nM
IC50 (second compound 10 µM): < 3.16 nM
viability, T/C [37]: 112%
viability, T/C [38]: 96.5%
viability, T/C [1]: 72.6%
viability, T/C [2]: 54.6%
viability, T/C [3]: 35.4%
viability, T/C [4]: 25.2%
viability, T/C [39]: 112%
viability, T/C [40]: 96.1%
viability, T/C [7]: 71.8%
viability, T/C [8]: 48.7%
viability, T/C [9]: 33.8%
viability, T/C [10]: 21.2%
viability, T/C [41]: 70.2%
viability, T/C [42]: 62.8%
viability, T/C [13]: 47.7%
viability, T/C [14]: 35.5%
viability, T/C [15]: 22.9%
viability, T/C [16]: 14.4%
viability, T/C [43]: 59.1%
viability, T/C [44]: 46.5%
viability, T/C [19]: 33.8%
viability, T/C [20]: 19.7%
viability, T/C [21]: 15.6%
viability, T/C [22]: 13.3%
viability, T/C [45]: 51.2%
viability, T/C [46]: 41.9%
viability, T/C [25]: 29.5%
viability, T/C [26]: 20.7%
viability, T/C [27]: 13.5%
viability, T/C [28]: 11.7%
viability, T/C [47]: 46.6%
viability, T/C [48]: 40.4%
viability, T/C [31]: 28.9%
viability, T/C [32]: 18.4%
viability, T/C [33]: 12.7%
viability, T/C [34]: 10.5%

Source: PubChem BioAssay AID2060600 (Molecular Pharmacology Branch, DTP, NCI, 2025)
